Data: US8124766B2, “Inhibitors of diacylglycerol acyltransferase” (Madrigal Pharmaceuticals, Inc., priority 2008, dated 2012)
Structures can show the parent of a compound that is named as a salt.

Each molecule was assayed on DGAT (assay: DGAT Phospholipid FlashPlate Assay). Conditions: DGAT pellet, DAG-coated PL-FlashPlate, 14C-Pal-CoA, 37° C. for 1 hour; read-out: DGAT Inhibition Activity IC50.
Format: biochemical
Experimental: DGAT Phospholipid FlashPlate Assay
Materials for the assay were: PL-FlashPlate: Phospholipid FlashPlates from PerkinElmer, catalog number SMP108; DAG (1,2-Dioleoyl-sn-glycerol) 10 mM suspended in water containing 0.1% Triton X-100; ^14C-Pal-CoA (palmitoyl coenzyme A, [palmitoyl-1-^14C]) from PerkinElmer, catalog number NEC-555 with a specific activity of 55 mCi/mmol; and DGAT pellet, with a protein concentration of 9.85 mg/ml.
Aqueous buffers were prepared or purchased as follows: The coating buffer (CB) was purchased from PerkinElmer, catalog number SMP900A; the reaction buffer (RB) was 50 mM Tris-HCl, pH 7.5, 100 mM NaCl, 0.01% BSA in water; the washing buffer (WB) is 50 mM Tris-HCl, pH 7.5, 100 mM NaCl, 0.05% deoxycholic acid sodium salt in water; the dilution buffer (DB) was 50 mM Tris-HCl, pH 7.5, 100 mM NaCl, 1 mM EDTA, 0.2% Triton X-100 in water.
1,2-Dioleoyl-sn-glycerol (DAG, 10 mmoles) was diluted to 500 μM with coating buffer (CB). The diluted DAG solution was then added to 384-well PL-FlashPlates at 60 μl per well, and incubated at room temperature for 2 days. The coated plates were then washed twice with washing buffer (WB) before use. Test compounds were serial diluted to 2000, 666.7, 222.2, 74.1, 24.7, 8.2, 2.7 and 0.9 μM in 100% DMSO. Diluted compound were further diluted 10 fold with reaction buffer (RB). ^14C-Pal-CoA was diluted to 8.3 μM with RB. The DGAT pellet was diluted to 0.13 mg protein/ml with dilution buffer (DB) immediately before it was added to the PL-FlashPlates to start the reaction. 20 μl of the RB-diluted compounds (or 10% DMSO in RB for Total and Blank), 15 μl of RB diluted 14C-Pal-CoA and 15 μl of DB diluted DGAT pellet (DB without DGAT for Blanks) were transferred to each well of the PL-FlashPlates. The reaction mixtures were incubated at 37° C. for 1 hour. The reactions were stopped by washing 3 times with WB. Plates were sealed with Top-seal and read on a Topcount instrument.
Calculation of IC50: The IC50 values for each compound were generated using an Excel template. The Topcount rpm readings of Total and Blank were used as 0% and 100% inhibition. The percent inhibition values of reactions in the presence of compounds were calculated, and plotted against compound concentrations. All data were fitted into a Dose Response One Site model (4 parameter logistic model) as the following: (A+((B−A)/(1+((x/C)^D)))), with A and B as the bottom and top of the curve (highest and lowest inhibition), respectively, and C as IC50 and D as Hill Coefficient of the compound.

Compound | IC50 [nM]
COCCN(C)c1ncc(NC(=O)c2sc3ccccc3c2C)cn1 [Example 36, 3-Methyl-benzo[b]thiophene-2-carboxylic acid {2-[(2-methoxy-ethyl)-methyl-amino]-pyrimidin-5-yl}-amide hydrochloride] | 856
CCOc1cccc2c1cc(C(=O)Nc1ccc(N3CCN(C(=O)[C@@H]4CCC[C@H]4C(=O)O)CC3)cc1)n2CC [Example 31, (1R,2R)-2-(4-{4-[(4-Ethoxy-1-ethyl-1H-indole-2-carbonyl)-amino]-phenyl}-piperazine-1-carbonyl)-cyclopentanecarboxylic acid] | 380
CCn1c(C(=O)Nc2ccc(N3CCN(C(=O)CC(C)(C)C(=O)O)CC3)nc2)cc2c(OCC(C)C)cccc21 [Example 13, 4-(4-{5-[(1-Ethyl-4-isobutoxy-1H-indole-2-carbonyl)-amino]-pyridin-2-yl}-piperazin-1-yl)-2,2-dimethyl-4-oxo-butyric acid hydrochloric acid] | 283
CCOC(=O)N1CC[C@H](Nc2ccc(NC(=O)c3cc4c(OC)cc(OC)cc4n3CC)cn2)C1 [Example 52, (S)-3-{5-[(1-Ethyl-4,6-dimethoxy-1H-indole-2-carbonyl)-amino]-pyridin-2-ylamino}pyrrolidine-1-carboxylic acid ethyl ester] | 229
COCc1c(C(=O)Nc2ccc(N3CCN(C(=O)OC(C)(C)C)CC3)cc2)oc2ccccc12 [Example 79, 4-{4-[(3-Methoxymethyl-benzofuran-2-carbonyl)-amino]-phenyl}-piperazine-1-carboxylic acid tert-butyl ester] | 940
CCn1c(C(=O)Nc2ccc(N3CCN(C(=O)OC(C)(C)C)CC3)nc2)cc2cc(Cl)ccc21 [Example 23, 4-{5-[(5-Chloro-1-ethyl-1H-indole-2-carbonyl)-amino]-pyridin-2-yl}-piperazine-1-carboxylic acid tert-butyl ester] | 571
CCCn1c(C(=O)Nc2ccc(N(C)CCOC)nc2)cc2ccccc21 [Example 41, 1-Propyl-1H-indole-2-carboxylic acid {6-[(2-methoxy-ethyl)-methyl-amino]-pyridin-3-yl}-amide hydrochloride] | 937
CCOC(=O)N1CC[C@H](Nc2ccc(NC(=O)c3cc4ccccc4s3)cn2)C1 [Example 48, (S)-3-{5-[(Benzo[b]thiophene-2-carbonyl)-amino]-pyridin-2-ylamino}-pyrrolidine-1-carboxylic acid ethyl ester hydrochloride] | 396
CCn1c(C(=O)Nc2ccc(N(C)CCOC)nc2)cc2cc(OCc3ccccc3)ccc21 [Example 40, 5-Benzyloxy-1-ethyl-1H-indole-2-carboxylic acid {6-[(2-methoxy-ethyl)-methyl-amino]-pyridin-3-yl}-amide] | 797
COCCN(C)c1ccc(NC(=O)c2sc3ccccc3c2C)cn1 [Example 35, 3-Methyl-benzo[b]thiophene-2-carboxylic acid {6-[(2-methoxy-ethyl)-methyl-amino]-pyridin-3-yl}-amide hydrochloride] | 351
CCOc1cccc2c1cc(C(=O)Nc1ccc(C3CCN(C(=O)CC(C)(C)C(=O)O)CC3)cc1)n2CC [Example 7, 4-(4-{4-[(4-Ethoxy-1-ethyl-1H-indole-2-carbonyl)-amino]-phenyl}-piperidin-1-yl)-2,2-dimethyl-4-oxo-butyric acid] | 316
CCn1c(C(=O)Nc2ccc(N3CCN(C(=O)OC(C)(C)C)CC3)nc2)cc2c(OCC(C)C)cccc21 [Example 12, 4-{5-[(1-Ethyl-4-isobutoxy-1H-indole-2-carbonyl)-amino]-pyridin-2-yl}-piperazine-1-carboxylic acid tert-butyl ester] | 273
CCn1c(C(=O)Nc2ccc(N3CCN(C(=O)OC(C)(C)C)CC3)nc2)cc2c(C(F)(F)F)cccc21 [Example 14, 4-{5-[(1-Ethyl-4-trifluoromethyl-1H-indole-2-carbonyl)-amino]-pyridin-2-yl}-piperazine-1-carboxylic acid tert-butyl ester] | 433
CCn1c(C(=O)Nc2ccc(C3CCN(C(=O)[C@H]4CC[C@H](C(=O)O)CC4)CC3)cc2)cc2c(C)cccc21 [Example 30, trans-4-(4-{4-[(1-Ethyl-4-methyl-1H-indole-2-carbonyl)-amino]-phenyl}-piperidine-1-carbonyl)-trans-1,4-cyclohexanecarboxylic acid] | 824
CCn1c(C(=O)Nc2ccc(N3CCN(C(=O)CC(C(=O)O)C(C)C)CC3)cc2)cc2c(Cl)c(Cl)ccc21 (centres unmarked) [Example 64, 2-[2-(4-{4-[(4,5-Dichloro-1-ethyl-1H-indole-2-carbonyl)-amino]-phenyl}-piperazin-1-yl)-2-oxo-ethyl]-3-methyl-butyric acid] | 164
CCOc1cccc2c1cc(C(=O)Nc1ccc(N3CCN(C(=O)OC(C)(C)C)CC3)nc1)n2CC [Example 5, 4-{5-[(4-Ethoxy-1-ethyl-1H-indole-2-carbonyl)-amino]-pyridin-2-yl}-piperazine-1-carboxylic acid tert-butyl ester] | 180
CCOc1cccc2c1cc(C(=O)Nc1ccc(O[C@H]3CCN(C(=O)CC(C)(C)C(=O)O)C3)cc1)n2CC [Example 66, 4-((S)-3-{4-[(4-Ethoxy-1-ethyl-1H-indole-2-carbonyl)-amino]-phenoxy}-pyrrolidin-1-yl)-2,2-dimethyl-4-oxo-butyric acid] | 208
CCn1c(C(=O)Nc2ccc(N3CCN(C(=O)OC(C)(C)C)CC3)nc2)cc2c(OC)cc(OC)cc21 [Example 16, 4-{5-[(1-Ethyl-4,6-dimethoxy-1H-indole-2-carbonyl)-amino]-pyridin-2-yl}-piperazine-1-carboxylic acid tert-butyl ester] | 248
CCn1c(C(=O)Nc2ccc(N3CCN(C(=O)CC(C)(C)C(=O)O)CC3)cc2)cc2c(Cl)c(Cl)ccc21 [Example 60, 4-(4-{4-[(4,5-Dichloro-1-ethyl-1H-indole-2-carbonyl)-amino]-phenyl}-piperazin-1-yl)-2,2-dimethyl-4-oxo-butyric acid] | 210
CCn1c(C(=O)Nc2ccc(N(C)CCOC)nc2)cc2c(OC)cccc21 [Example 38, 1-Ethyl-4-methoxy-1H-indole-2-carboxylic acid {6-[(2-methoxy-ethyl)-methyl-amino]-pyridin-3-yl}-amide hydrochloride] | 102
CCn1c(C(=O)Nc2ccc(N3CCN(C(=O)CC4SC(=O)NC4=O)CC3)cc2)cc2c(Cl)c(Cl)ccc21 (centres unmarked) [Example 69, 4,5-Dichloro-1-ethyl-1H-indole-2-carboxylic acid (4-{4-[2-(2,4-dioxo-thiazolidin-5-yl)-acetyl]-piperazin-1-yl}-phenyl)-amide] | 236
CCOC(=O)N1CCN(c2ccc(NC(=O)c3cc4c(OC)cccc4n3CC)cn2)CC1 [Example 21, 4-{5-[(1-Ethyl-4-methoxy-1H-indole-2-carbonyl)-amino]-pyridin-2-yl}-piperazine-1-carboxylic acid ethyl ester] | 282
CCOC(=O)N1CC[C@H](Nc2ccc(NC(=O)c3cc4c(Cl)cccc4s3)cn2)C1 [Example 47, (S)-3-{5-[(4-Chloro-benzo[b]thiophene-2-carbonyl)-amino]pyridin-2-ylamino}-pyrrolidine-1-carboxylic acid ethyl ester hydrochloride] | 280
